Values after ≈ are worked out from the molar mass of the structure shown. Counter-ions that a name gives are not always drawn. Like-named read-outs stand apart in the source and are kept apart here.
Tests used:
P.aeruginosa SR24 = assay: MIC by agar dilution method; assay type: cell-based; conditions: P.aeruginosa SR24, G(−)
Description: (§1) The minimal inhibitory concentration (MIC) of compound (I) against various bacteria was determined by an agar dilution method. As reference compounds, used were cefozopran hydrochloride (CZOP) described in JP(A) Kokai H03-47189, cefoselis sulfate (CFSL) described in JP(A) Kokai H07-196665 and WO97/41128, compound A of which 3-side chain is a type of imidazo[4,5-c]pyridiniummethyl, and vancomycin. In the table, “Ex5-3”, for example, represents the end compound of the present invention obtained in Example 5-3, and the others are similarly expressed.

S.pneumoniae Type 1 = assay: MIC by agar dilution method; assay type: cell-based
Description: as §1

S.pneumoniae SR16675 = assay: MIC by agar dilution method; assay type: cell-based
Description: as §1

E.coli SR5028 = assay: MIC by agar dilution method; assay type: cell-based; conditions: E.coli SR5028, G(−)
Description: as §1

S.aureus SMITH = assay: MIC by agar dilution method; assay type: cell-based
Description: as §1

S.aureus SR3637 [1] = assay: MIC by agar dilution method; assay type: cell-based
Description: as §1

E.cloacae ATCC 13047 = assay: MIC by agar dilution method; assay type: cell-based; conditions: E.cloacae ATCC 13047, G(−)
Description: as §1

S.mitis SR16376 = assay: MIC by agar dilution method; assay type: cell-based
Description: as §1

E.faecalis SR1004 = assay: MIC by agar dilution method; assay type: cell-based; conditions: E.faecalis SR1004, G(+)
Description: as §1

E.coli NIH JC-2 = assay: MIC by agar dilution method; assay type: cell-based; conditions: E.coli NIH JC-2, G(−)
Description: as §1

E.cloacae SR4321 = assay: MIC by agar dilution method; assay type: cell-based; conditions: E.cloacae SR4321, G(−)
Description: as §1

S.aureus SR3626 = assay: MIC by agar dilution method; assay type: cell-based
Description: as §1

S.marvescens ATCC 13880 = assay: MIC by agar dilution method; assay type: cell-based
Description: as §1

P.aeruginosae SR5393 = assay: MIC by agar dilution method; assay type: cell-based; conditions: P.aeruginosae SR5393, G(−)
Description: as §1

P.vulgaris CN-329 = assay: MIC by agar dilution method; assay type: cell-based; conditions: P.vulgaris CN-329, G(−)
Description: as §1

S.aureus SR14 = assay: MIC by agar dilution method; assay type: cell-based
Description: as §1

S.aureus SR3637 [2] = assay: ED50 mouse/S.aureus SR3637; assay type: in vivo
[3] = Pseudomonas aeruginosa, read-out: MIC
[4] = Streptococcus pneumoniae, TYPE1, S.pneumoniae Type 1, G(+), read-out: MIC
[5] = Streptococcus pneumoniae, S.pneumoniae SR16675, G(+), read-out: MIC
[6] = Escherichia coli, read-out: MIC
[7] = Staphylococcus aureus, S.aureus SMITH, G(+), read-out: MIC
[8] = Staphylococcus aureus, S.aureus SR3637 (MRSA), G(+), read-out: MIC
[9] = Enterobacter cloacae, ATCC13047, read-out: MIC
[10] = Streptococcus mitis, S.mitis SR16376, G(+), read-out: MIC
[11] = Enterococcus faecalis, read-out: MIC
[12] = Escherichia coli, NIHJC2, read-out: MIC
[13] = Enterobacter cloacae, read-out: MIC
[14] = Staphylococcus aureus, S.aureus SR3626 (MRSA), G(+), read-out: MIC
[15] = Proteus vulgaris, CN329, read-out: MIC
[16] = Staphylococcus aureus, S.aureus SR14, G(+), read-out: MIC

Structure (SMILES)	ED50 (S.aureus SR3637 [2])	MIC (P.aeruginosa SR24)	MIC (S.pneumoniae Type 1; S.pneumoniae Type 1, G(+))	MIC (S.pneumoniae SR16675; S.pneumoniae SR16675, G(+))	MIC (E.coli SR5028)	MIC (S.aureus SMITH; S.aureus SMITH, G(+))	MIC (S.aureus SR3637 [1]; S.aureus SR3637 (MRSA), G(+))	MIC (E.cloacae ATCC 13047)	MIC (S.mitis SR16376; S.mitis SR16376, G(+))	MIC (E.faecalis SR1004)	MIC (E.coli NIH JC-2)	MIC (E.cloacae SR4321)	MIC (S.aureus SR3626; S.aureus SR3626 (MRSA), G(+))	MIC (S.marvescens ATCC 13880; S.marvescens ATCC 13880, G(−))	MIC (P.aeruginosae SR5393)	MIC (P.vulgaris CN-329)	MIC (S.aureus SR14; S.aureus SR14, G(+))	other results
CCO/N=C(\C(=O)NC1C(=O)N2C(C(=O)[O-])=C(C[n+]3ccc4c(c3)ncn4CCCN)CSC12)c1nsc(N)n1 (stereo not shown) [A, reference compound]	–	–	–	–	–	–	–	–	–	–	–	–	–	–	–	–	–	MIC (P.aeruginosa SR24; [3]): 0.78 µg/mL (≈ 1.33 µM); MIC (S.pneumoniae Type 1; [4]): 0.0125 µg/mL (≈ 0.0213 µM); MIC (S.pneumoniae SR16675; [5]): 0.39 µg/mL (≈ 0.665 µM); MIC (E.coli SR5028; [6]): 1.56 µg/mL (≈ 2.66 µM); MIC (S.aureus SMITH; [7]): 0.78 µg/mL (≈ 1.33 µM); MIC (S.aureus SR3637 [1]; [8]): 25 µg/mL (≈ 42.6 µM); MIC (E.cloacae ATCC 13047; [9]): 0.48 µg/mL (≈ 0.818 µM); MIC (S.mitis SR16376; [10]): 0.1 µg/mL (≈ 0.17 µM); MIC (E.faecalis SR1004; [11]): 50 µg/mL (≈ 85.2 µM); MIC (E.coli NIH JC-2; [12]): 0.05 µg/mL (≈ 0.0852 µM); MIC (E.cloacae SR4321; [13]): 12.5 µg/mL (≈ 21.3 µM); MIC (S.aureus SR3626; [14]): 25 µg/mL (≈ 42.6 µM); MIC (S.marvescens ATCC 13880): 0.1 µg/mL (≈ 0.17 µM); MIC (P.aeruginosae SR5393; read-out: MIC): 3.13 µg/mL (≈ 5.34 µM); MIC (P.vulgaris CN-329; [15]): 0.1 µg/mL (≈ 0.17 µM); MIC (S.aureus SR14; [16]): 3.13 µg/mL (≈ 5.34 µM)
CO/N=C(\C(=O)N[C@@H]1C(=O)N2C(C(=O)[O-])=C(Cn3cc[n+]4ncccc34)CS[C@H]12)c1nsc(N)n1 [CZOP, cefozopran hydrochloride, reference compound]	–	–	–	–	–	–	–	–	–	–	–	–	–	–	–	–	–	MIC (P.aeruginosa SR24; [3]): 0.78 µg/mL; MIC (S.pneumoniae Type 1; [4]): 0.05 µg/mL; MIC (S.pneumoniae SR16675; [5]): 0.78 µg/mL; MIC (E.coli SR5028; [6]): 0.78 µg/mL; MIC (S.aureus SMITH; [7]): 0.78 µg/mL; MIC (S.aureus SR3637 [1]; [8]): 50 µg/mL; MIC (E.cloacae ATCC 13047; [9]): 0.2 µg/mL; MIC (S.mitis SR16376; [10]): 0.2 µg/mL; MIC (E.faecalis SR1004; [11]): 25 µg/mL; MIC (E.coli NIH JC-2; [12]): 0.05 µg/mL; MIC (E.cloacae SR4321; [13]): 6.25 µg/mL; MIC (S.aureus SR3626; [14]): 50 µg/mL; MIC (S.marvescens ATCC 13880; S.marvescens ATCC 13880, G(−), read-out: MIC): 0.1 µg/mL; MIC (P.aeruginosae SR5393; read-out: MIC): 1.56 µg/mL; MIC (P.vulgaris CN-329; [15]): 0.2 µg/mL; MIC (S.aureus SR14; [16]): 0.78 µg/mL
CCON=C(C(=O)NC1C(=O)N2C(C(=O)[O-])=C(C[n+]3cccc4c3ncn4C3CCNC3)CSC12)c1nsc(N)n1.Cl (stereo not shown) [Ex4-1]	11.3 mg/kg	0.78 µg/mL	0.025 µg/mL	0.39 µg/mL	3.13 µg/mL	0.78 µg/mL	6.25 µg/mL	0.78 µg/mL	0.1 µg/mL	50 µg/mL	0.2 µg/mL	25 µg/mL	3.13 µg/mL	0.2 µg/mL	3.13 µg/mL	0.78 µg/mL	1.56 µg/mL	–
CCON=C(C(=O)NC1C(=O)N2C(C(=O)[O-])=C(C[n+]3cccc4c3ncn4CCCN)CSC12)c1nsc(N)n1.Cl (stereo not shown) [Ex5-2]	–	0.78 µg/mL	0.025 µg/mL	0.78 µg/mL	3.13 µg/mL	0.78 µg/mL	3.13 µg/mL	0.78 µg/mL	0.2 µg/mL	50 µg/mL	0.39 µg/mL	25 µg/mL	3.13 µg/mL	0.39 µg/mL	3.13 µg/mL	0.78 µg/mL	0.78 µg/mL	–
Cl.NCCCn1cnc2c1ccc[n+]2CC1=C(C(=O)[O-])N2C(=O)C(NC(=O)C(=NOCF)c3nsc(N)n3)C2SC1 (stereo not shown) [Ex5-3]	5.66 mg/kg	1.56 µg/mL	0.025 µg/mL	0.78 µg/mL	1.56 µg/mL	0.78 µg/mL	3.13 µg/mL	0.39 µg/mL	0.2 µg/mL	100 µg/mL	0.1 µg/mL	12.5 µg/mL	3.13 µg/mL	0.1 µg/mL	6.25 µg/mL	0.39 µg/mL	0.78 µg/mL	–
CCON=C(C(=O)NC1C(=O)N2C(C(=O)[O-])=C(C[n+]3cccc4c3ncn4CCCNC)CSC12)c1nsc(N)n1.Cl (stereo not shown) [Ex6-2]	7.92 mg/kg	1.56 µg/mL	0.025 µg/mL	0.78 µg/mL	3.13 µg/mL	1.56 µg/mL	3.13 µg/mL	0.78 µg/mL	0.1 µg/mL	50 µg/mL	0.39 µg/mL	25 µg/mL	3.13 µg/mL	0.39 µg/mL	6.25 µg/mL	0.78 µg/mL	1.56 µg/mL	–
CNCCCn1cnc2c1ccc[n+]2CC1=C(C(=O)[O-])N2C(=O)C(NC(=O)C(=NOCF)c3nsc(N)n3)C2SC1.Cl (stereo not shown) [Ex6-3]	6.43 mg/kg	3.13 µg/mL	0.025 µg/mL	0.78 µg/mL	1.56 µg/mL	0.78 µg/mL	6.25 µg/mL	0.78 µg/mL	0.2 µg/mL	50 µg/mL	0.2 µg/mL	12.5 µg/mL	6.25 µg/mL	0.2 µg/mL	6.25 µg/mL	0.39 µg/mL	0.78 µg/mL	–
CN[C@H](CC(C)C)C(=O)N[C@H]1C(=O)N[C@@H](CC(N)=O)C(=O)N[C@H]2C(=O)N[C@H]3C(=O)N[C@H](C(=O)N[C@H](C(=O)O)c4cc(O)cc(O)c4-c4cc3ccc4O)[C@H](O)c3ccc(c(Cl)c3)Oc3cc2cc(c3O[C@@H]2O[C@H](CO)[C@@H](O)[C@H](O)[C@H]2O[C@H]2C[C@](C)(N)[C@H](O)[C@H](C)O2)Oc2ccc(cc2Cl)[C@H]1O [VCM, vancomycin, reference compound]	–	–	–	–	–	–	–	–	–	–	–	–	–	–	–	–	–	ED50 (S.aureus SR3637 [2]; Staphylococcus aureus, read-out: ED50): 5.66 mg/kg; MIC (S.pneumoniae Type 1; Streptococcus pneumoniae, TYPE1): 0.39 µg/mL (≈ 0.269 µM); MIC (S.pneumoniae SR16675; Streptococcus pneumoniae, SR16675): 0.2 µg/mL (≈ 0.138 µM); MIC (S.aureus SMITH; Staphylococcus aureus): 0.78 µg/mL (≈ 0.538 µM); MIC (S.aureus SR3637 [1]; Staphylococcus aureus, MRSA): 3.13 µg/mL (≈ 2.16 µM); MIC (S.mitis SR16376; Streptococcus mitis, SR16376): 0.39 µg/mL (≈ 0.269 µM); MIC (S.aureus SR3626; Staphylococcus aureus, MRSA): 3.13 µg/mL (≈ 2.16 µM); MIC (S.aureus SR14; Staphylococcus aureus, SR14): 0.78 µg/mL (≈ 0.538 µM)
